# System: Echinochloa crusgalli
# Experiment: Weeding effect in post-emergence stage
# Assay type: in vivo
# Settings: Dose 15 g/ha; level of fresh weight growth control rate
# Summary of the method: (§1)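 Weeds were treated post-emergence at 2-3 leaves with compound doses from 7.5 up to 500 g/ha, formulated in acetone–Tween 80 with methyl oleate synergist. Efficacy was assessed as growth control after 3 weeks.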
row,Structure (SMILES),"Weeding effect in post-emergence stage, Echinochloa crusgalli"
1,CSCOC(=O)[C@@H](C)O/N=C/c1cc(-n2c(=O)cc(C(F)(F)F)n(C)c2=O)c(F)cc1Cl [233(R)],5 (Level 5: growth control rate is above 85%)
2,CSCCOC(=O)[C@@H](C)O/N=C/c1cc(-n2c(=O)cc(C(F)(F)F)n(C)c2=O)c(F)cc1Cl [234(R)],5 (Level 5: growth control rate is above 85%)
3,CC(=O)COC(=O)[C@@H](C)O/N=C/c1cc(-n2c(=O)cc(C(F)(F)F)n(C)c2=O)c(F)cc1Cl [238(R)],5 (Level 5: growth control rate is above 85%)
4,COC(=O)C(C)(C)OC(=O)[C@@H](C)O/N=C/c1cc(-n2c(=O)cc(C(F)(F)F)n(C)c2=O)c(F)cc1Cl [243(R)],5 (Level 5: growth control rate is above 85%)

# Same assay, conditions: Dose 30 g/ha; level of fresh weight growth control rate
row,Structure (SMILES),"Weeding effect in post-emergence stage, Echinochloa crusgalli"
1,COC(=O)CCOC(=O)[C@@H](C)O/N=C/c1cc(-n2c(=O)cc(C(F)(F)F)n(C)c2=O)c(F)cc1Cl [240(R)],5 (Level 5: growth control rate is above 85%)
2,COC(=O)C(C)OC(=O)[C@@H](C)O/N=C/c1cc(-n2c(=O)cc(C(F)(F)F)n(C)c2=O)c(F)cc1Cl (stereo partly drawn) [241(R)],5 (Level 5: growth control rate is above 85%)
3,COC(=O)C(OC)OC(=O)[C@@H](C)O/N=C/c1cc(-n2c(=O)cc(C(F)(F)F)n(C)c2=O)c(F)cc1Cl (stereo partly drawn) [245(R)],5 (Level 5: growth control rate is above 85%)

# Same assay, conditions: Dose 60 g/ha; level of fresh weight growth control rate
row,Structure (SMILES),"Weeding effect in post-emergence stage, Echinochloa crusgalli"
1,CCCOC(=O)OC(=O)[C@@H](C)O/N=C/c1cc(-n2c(=O)cc(C(F)(F)F)n(C)c2=O)c(F)cc1Cl [236(R)],5 (Level 5: growth control rate is above 85%)

# System: Eleusine indica
# Experiment: Weeding effect in post-emergence stage
# Assay type: in vivo
# Settings: Dose 15 g/ha; level of fresh weight growth control rate
# Summary of the method: as §1
row,Structure (SMILES),"Weeding effect in post-emergence stage, Eleusine indica"
1,CSCOC(=O)[C@@H](C)O/N=C/c1cc(-n2c(=O)cc(C(F)(F)F)n(C)c2=O)c(F)cc1Cl [233(R)],5 (Level 5: growth control rate is above 85%)
2,CSCCOC(=O)[C@@H](C)O/N=C/c1cc(-n2c(=O)cc(C(F)(F)F)n(C)c2=O)c(F)cc1Cl [234(R)],5 (Level 5: growth control rate is above 85%)
3,CC(=O)COC(=O)[C@@H](C)O/N=C/c1cc(-n2c(=O)cc(C(F)(F)F)n(C)c2=O)c(F)cc1Cl [238(R)],5 (Level 5: growth control rate is above 85%)
4,COC(=O)C(C)(C)OC(=O)[C@@H](C)O/N=C/c1cc(-n2c(=O)cc(C(F)(F)F)n(C)c2=O)c(F)cc1Cl [243(R)],5 (Level 5: growth control rate is above 85%)

# Same assay, conditions: Dose 30 g/ha; level of fresh weight growth control rate
row,Structure (SMILES),"Weeding effect in post-emergence stage, Eleusine indica"
1,COC(=O)CCOC(=O)[C@@H](C)O/N=C/c1cc(-n2c(=O)cc(C(F)(F)F)n(C)c2=O)c(F)cc1Cl [240(R)],5 (Level 5: growth control rate is above 85%)
2,COC(=O)C(C)OC(=O)[C@@H](C)O/N=C/c1cc(-n2c(=O)cc(C(F)(F)F)n(C)c2=O)c(F)cc1Cl (stereo partly drawn) [241(R)],5 (Level 5: growth control rate is above 85%)
3,COC(=O)C(OC)OC(=O)[C@@H](C)O/N=C/c1cc(-n2c(=O)cc(C(F)(F)F)n(C)c2=O)c(F)cc1Cl (stereo partly drawn) [245(R)],5 (Level 5: growth control rate is above 85%)

# Same assay, conditions: Dose 60 g/ha; level of fresh weight growth control rate
row,Structure (SMILES),"Weeding effect in post-emergence stage, Eleusine indica"
1,CCCOC(=O)OC(=O)[C@@H](C)O/N=C/c1cc(-n2c(=O)cc(C(F)(F)F)n(C)c2=O)c(F)cc1Cl [236(R)],5 (Level 5: growth control rate is above 85%)

# System: Digitaria sanguinalis
# Experiment: Weeding effect in post-emergence stage
# Assay type: in vivo
# Settings: Dose 15 g/ha; level of fresh weight growth control rate
# Summary of the method: as §1
row,Structure (SMILES),"Weeding effect in post-emergence stage, Digitaria sanguinalis"
1,CSCOC(=O)[C@@H](C)O/N=C/c1cc(-n2c(=O)cc(C(F)(F)F)n(C)c2=O)c(F)cc1Cl [233(R)],5 (Level 5: growth control rate is above 85%)
2,CSCCOC(=O)[C@@H](C)O/N=C/c1cc(-n2c(=O)cc(C(F)(F)F)n(C)c2=O)c(F)cc1Cl [234(R)],5 (Level 5: growth control rate is above 85%)
3,CC(=O)COC(=O)[C@@H](C)O/N=C/c1cc(-n2c(=O)cc(C(F)(F)F)n(C)c2=O)c(F)cc1Cl [238(R)],5 (Level 5: growth control rate is above 85%)
4,COC(=O)C(C)(C)OC(=O)[C@@H](C)O/N=C/c1cc(-n2c(=O)cc(C(F)(F)F)n(C)c2=O)c(F)cc1Cl [243(R)],5 (Level 5: growth control rate is above 85%)

# Same assay, conditions: Dose 30 g/ha; level of fresh weight growth control rate
row,Structure (SMILES),"Weeding effect in post-emergence stage, Digitaria sanguinalis"
1,COC(=O)CCOC(=O)[C@@H](C)O/N=C/c1cc(-n2c(=O)cc(C(F)(F)F)n(C)c2=O)c(F)cc1Cl [240(R)],5 (Level 5: growth control rate is above 85%)
2,COC(=O)C(C)OC(=O)[C@@H](C)O/N=C/c1cc(-n2c(=O)cc(C(F)(F)F)n(C)c2=O)c(F)cc1Cl (stereo partly drawn) [241(R)],5 (Level 5: growth control rate is above 85%)
3,COC(=O)C(OC)OC(=O)[C@@H](C)O/N=C/c1cc(-n2c(=O)cc(C(F)(F)F)n(C)c2=O)c(F)cc1Cl (stereo partly drawn) [245(R)],5 (Level 5: growth control rate is above 85%)

# Same assay, conditions: Dose 60 g/ha; level of fresh weight growth control rate
row,Structure (SMILES),"Weeding effect in post-emergence stage, Digitaria sanguinalis"
1,CCCOC(=O)OC(=O)[C@@H](C)O/N=C/c1cc(-n2c(=O)cc(C(F)(F)F)n(C)c2=O)c(F)cc1Cl [236(R)],5 (Level 5: growth control rate is above 85%)

# System: Alopecurus japonicus
# Experiment: Weeding effect in post-emergence stage
# Assay type: in vivo
# Settings: Dose 15 g/ha; level of fresh weight growth control rate
# Summary of the method: as §1
row,Structure (SMILES),"Weeding effect in post-emergence stage, Alopecurus japonicus"
1,CSCOC(=O)[C@@H](C)O/N=C/c1cc(-n2c(=O)cc(C(F)(F)F)n(C)c2=O)c(F)cc1Cl [233(R)],5 (Level 5: growth control rate is above 85%)
2,CSCCOC(=O)[C@@H](C)O/N=C/c1cc(-n2c(=O)cc(C(F)(F)F)n(C)c2=O)c(F)cc1Cl [234(R)],5 (Level 5: growth control rate is above 85%)
3,CC(=O)COC(=O)[C@@H](C)O/N=C/c1cc(-n2c(=O)cc(C(F)(F)F)n(C)c2=O)c(F)cc1Cl [238(R)],5 (Level 5: growth control rate is above 85%)
4,COC(=O)C(C)(C)OC(=O)[C@@H](C)O/N=C/c1cc(-n2c(=O)cc(C(F)(F)F)n(C)c2=O)c(F)cc1Cl [243(R)],5 (Level 5: growth control rate is above 85%)

# Same assay, conditions: Dose 30 g/ha; level of fresh weight growth control rate
row,Structure (SMILES),"Weeding effect in post-emergence stage, Alopecurus japonicus"
1,COC(=O)CCOC(=O)[C@@H](C)O/N=C/c1cc(-n2c(=O)cc(C(F)(F)F)n(C)c2=O)c(F)cc1Cl [240(R)],5 (Level 5: growth control rate is above 85%)
2,COC(=O)C(C)OC(=O)[C@@H](C)O/N=C/c1cc(-n2c(=O)cc(C(F)(F)F)n(C)c2=O)c(F)cc1Cl (stereo partly drawn) [241(R)],5 (Level 5: growth control rate is above 85%)
3,COC(=O)C(OC)OC(=O)[C@@H](C)O/N=C/c1cc(-n2c(=O)cc(C(F)(F)F)n(C)c2=O)c(F)cc1Cl (stereo partly drawn) [245(R)],5 (Level 5: growth control rate is above 85%)

# Same assay, conditions: Dose 60 g/ha; level of fresh weight growth control rate
row,Structure (SMILES),"Weeding effect in post-emergence stage, Alopecurus japonicus"
1,CCCOC(=O)OC(=O)[C@@H](C)O/N=C/c1cc(-n2c(=O)cc(C(F)(F)F)n(C)c2=O)c(F)cc1Cl [236(R)],5 (Level 5: growth control rate is above 85%)

# System: Abutilon theophrasti
# Experiment: Weeding effect in post-emergence stage
# Assay type: in vivo
# Settings: Dose 15 g/ha; level of fresh weight growth control rate
# Summary of the method: as §1
row,Structure (SMILES),"Weeding effect in post-emergence stage, Abutilon theophrasti"
1,CSCOC(=O)[C@@H](C)O/N=C/c1cc(-n2c(=O)cc(C(F)(F)F)n(C)c2=O)c(F)cc1Cl [233(R)],5 (Level 5: growth control rate is above 85%)
2,CSCCOC(=O)[C@@H](C)O/N=C/c1cc(-n2c(=O)cc(C(F)(F)F)n(C)c2=O)c(F)cc1Cl [234(R)],5 (Level 5: growth control rate is above 85%)
3,CC(=O)COC(=O)[C@@H](C)O/N=C/c1cc(-n2c(=O)cc(C(F)(F)F)n(C)c2=O)c(F)cc1Cl [238(R)],5 (Level 5: growth control rate is above 85%)
4,COC(=O)C(C)(C)OC(=O)[C@@H](C)O/N=C/c1cc(-n2c(=O)cc(C(F)(F)F)n(C)c2=O)c(F)cc1Cl [243(R)],5 (Level 5: growth control rate is above 85%)

# Same assay, conditions: Dose 30 g/ha; level of fresh weight growth control rate
row,Structure (SMILES),"Weeding effect in post-emergence stage, Abutilon theophrasti"
1,COC(=O)CCOC(=O)[C@@H](C)O/N=C/c1cc(-n2c(=O)cc(C(F)(F)F)n(C)c2=O)c(F)cc1Cl [240(R)],5 (Level 5: growth control rate is above 85%)
2,COC(=O)C(C)OC(=O)[C@@H](C)O/N=C/c1cc(-n2c(=O)cc(C(F)(F)F)n(C)c2=O)c(F)cc1Cl (stereo partly drawn) [241(R)],5 (Level 5: growth control rate is above 85%)
3,COC(=O)C(OC)OC(=O)[C@@H](C)O/N=C/c1cc(-n2c(=O)cc(C(F)(F)F)n(C)c2=O)c(F)cc1Cl (stereo partly drawn) [245(R)],5 (Level 5: growth control rate is above 85%)

# Same assay, conditions: Dose 60 g/ha; level of fresh weight growth control rate
row,Structure (SMILES),"Weeding effect in post-emergence stage, Abutilon theophrasti"
1,CCCOC(=O)OC(=O)[C@@H](C)O/N=C/c1cc(-n2c(=O)cc(C(F)(F)F)n(C)c2=O)c(F)cc1Cl [236(R)],5 (Level 5: growth control rate is above 85%)

# System: Setaria viridis
# Experiment: Weeding effect in post-emergence stage
# Assay type: in vivo
# Settings: Dose 15 g/ha; level of fresh weight growth control rate
# Summary of the method: as §1
row,Structure (SMILES),"Weeding effect in post-emergence stage, Setaria viridis"
1,CSCOC(=O)[C@@H](C)O/N=C/c1cc(-n2c(=O)cc(C(F)(F)F)n(C)c2=O)c(F)cc1Cl [233(R)],5 (Level 5: growth control rate is above 85%)
2,CSCCOC(=O)[C@@H](C)O/N=C/c1cc(-n2c(=O)cc(C(F)(F)F)n(C)c2=O)c(F)cc1Cl [234(R)],5 (Level 5: growth control rate is above 85%)
3,CC(=O)COC(=O)[C@@H](C)O/N=C/c1cc(-n2c(=O)cc(C(F)(F)F)n(C)c2=O)c(F)cc1Cl [238(R)],5 (Level 5: growth control rate is above 85%)
4,COC(=O)C(C)(C)OC(=O)[C@@H](C)O/N=C/c1cc(-n2c(=O)cc(C(F)(F)F)n(C)c2=O)c(F)cc1Cl [243(R)],5 (Level 5: growth control rate is above 85%)

# Same assay, conditions: Dose 30 g/ha; level of fresh weight growth control rate
row,Structure (SMILES),"Weeding effect in post-emergence stage, Setaria viridis"
1,COC(=O)CCOC(=O)[C@@H](C)O/N=C/c1cc(-n2c(=O)cc(C(F)(F)F)n(C)c2=O)c(F)cc1Cl [240(R)],5 (Level 5: growth control rate is above 85%)
2,COC(=O)C(C)OC(=O)[C@@H](C)O/N=C/c1cc(-n2c(=O)cc(C(F)(F)F)n(C)c2=O)c(F)cc1Cl (stereo partly drawn) [241(R)],5 (Level 5: growth control rate is above 85%)
3,COC(=O)C(OC)OC(=O)[C@@H](C)O/N=C/c1cc(-n2c(=O)cc(C(F)(F)F)n(C)c2=O)c(F)cc1Cl (stereo partly drawn) [245(R)],5 (Level 5: growth control rate is above 85%)

# Same assay, conditions: Dose 60 g/ha; level of fresh weight growth control rate
row,Structure (SMILES),"Weeding effect in post-emergence stage, Setaria viridis"
1,CCCOC(=O)OC(=O)[C@@H](C)O/N=C/c1cc(-n2c(=O)cc(C(F)(F)F)n(C)c2=O)c(F)cc1Cl [236(R)],5 (Level 5: growth control rate is above 85%)

# Source: patent publication US20230111310A1, “CARBOXYLIC ACID DERIVATIVE-SUBSTITUTED IMINO ARYL COMPOUND, PREPARATION METHOD THEREFOR, HERBICIDAL COMPOSITION AND USE THEREOF” (Qingdao Kingagroot Chemical Compound Co., Ltd., priority 2020, published 2023)
